Data on seven compounds can be found in ChEMBL document CHEMBL1147281, “Antimicrobial and cytotoxic activity of rottlerin-type compounds from Hypericum drummondii” (1989).

Common to all, as to type: functional
In one test the test system is Staphylococcus aureus. Briefly: Antimicrobial activity against Staphylococcus aureus ATCC 6538 after 24 hrs by twofold serial dilution method. The note with it: ATCC 6538, 24 h.
The next test concerns Bacillus subtilis. In words: Antimicrobial activity against Bacillus subtilis ATCC 6633 after 24 hrs by twofold serial dilution method. The note with it: ATCC 6633, 24 h.
The test system of test [1] is Mycolicibacterium smegmatis. Briefly: Antimicrobial activity against Mycobacterium smegmatis ATCC 607 after 48 hrs by twofold serial dilution method. The note with it: ATCC 607, 48 h.
The next test has as its system P388. Briefly: Cytotoxicity against mouse P388 cells after 48 hrs. Conditions: P388, 48 h, read-out: ED50 (the source's name).
The next test has as its system KB. Briefly: Cytotoxicity against human KB cells after 72 hrs. The note with it: read-out: ED50 (the source's name).
Test [2] in a line: Cytotoxicity against human breast cancer cells after 72 hrs. Conditions: Cancer cell lines, read-out: ED50 (the source's name).
Test [3] is described as follows: Cytotoxicity against human colon cancer cells after 72 hrs. Conditions: Cancer cell lines, read-out: ED50 (the source's name).
Test [4] can be described thus: Cytotoxicity against human lung cancer cells after 72 hrs. The note with it: Cancer cell lines, read-out: ED50 (the source's name).
A short description of test [5]: Cytotoxicity against human melanoma cells after 72 hrs. The note with it: Melanoma cell, read-out: ED50 (the source's name).
A further test deals with Pseudomonas aeruginosa. Briefly: Antimicrobial activity against Pseudomonas aeruginosa after 48 hrs by twofold serial dilution method.
The next test relates to Escherichia coli. In words: Antimicrobial activity against Escherichia coli after 48 hrs by twofold serial dilution method.

Converted amounts (≈) assume the structure as drawn. Bounds are passed on as bounds.

Regarding `CCC(=O)C1=C(O)C(C)(C)C(O)=C(CC2=C(O)C(C)(C)C(O)=C(C(=O)CC)C2=O)C1=O`, the MIC in the test with Staphylococcus aureus was 50 µg/mL (≈ 116 µM); with Bacillus subtilis it was 12.5 µg/mL (≈ 28.9 µM); in test [1], 50 µg/mL (≈ 116 µM); in the test with Pseudomonas aeruginosa it was greater than 100 µg/mL; in the test with Escherichia coli, greater than 100 µg/mL. In addition, the EC50 (in the test with P388; with KB; in test [2]; in test [3]; in test [4]; in test [5]) was greater than 50 µg/mL throughout.
As for `CC(=O)C1=C(O)C(C)(C)C(O)=C(CC2=C(O)C(C)(C)C(O)=C(C(C)=O)C2=O)C1=O`, the minimal inhibitory concentration (MIC) was 100 µg/mL (≈ 247 µM) against Staphylococcus aureus; 50 µg/mL (≈ 124 µM) with Bacillus subtilis; 100 µg/mL (≈ 247 µM) in [1]; greater than 100 µg/mL with Pseudomonas aeruginosa; greater than 100 µg/mL against Escherichia coli. Also, the EC50 (in the test on P388; in the test with KB; in [2]; in test [3]; in [4]; in [5]) was greater than 50 µg/mL each time.
As for `CCC(=O)C1=C(O)C(C)(C)C(O)=C(Cc2c(O)c3c(c(C(=O)CC)c2O)OC(C)(C)C=C3)C1=O` [DRUMMONDIN A], the MIC was 1.56 µg/mL (≈ 3.32 µM) with Staphylococcus aureus; 0.78 µg/mL (≈ 1.66 µM) in the test with Bacillus subtilis; 1.56 µg/mL (≈ 3.32 µM) in test [1]; greater than 100 µg/mL in the test on Pseudomonas aeruginosa; greater than 100 µg/mL against Escherichia coli. The EC50 came to 2.1 µg/mL (≈ 4.46 µM) in the test on P388; 4.5 µg/mL (≈ 9.56 µM) in the test with KB; 3.4 µg/mL (≈ 7.23 µM) in test [2]; 6.6 µg/mL (≈ 14 µM) in test [3]; 4.5 µg/mL (≈ 9.56 µM) in [4]; 8 µg/mL (≈ 17 µM) in test [5].
For `CCC(=O)C1=C(O)C(C)(C)C(O)=C(Cc2c(O)c3c(c(C(C)=O)c2O)OC(C)(C)C=C3)C1=O` [DRUMMONDIN B], the MIC is 3.12 µg/mL (≈ 6.83 µM) in the test with Staphylococcus aureus; 0.39 µg/mL (≈ 0.854 µM) in the test with Bacillus subtilis; 1.56 µg/mL (≈ 3.42 µM) in test [1]; greater than 100 µg/mL against Pseudomonas aeruginosa; greater than 100 µg/mL against Escherichia coli. Also, the EC50 came out at 1.9 µg/mL (≈ 4.16 µM) in the test with P388; 3.1 µg/mL (≈ 6.79 µM) with KB; 6.3 µg/mL (≈ 13.8 µM) in test [3]; 7 µg/mL (≈ 15.3 µM) in [4]; 5 µg/mL (≈ 11 µM) in [5].
As to `CC(=O)C1=C(O)C(C)(C)C(O)=C(Cc2c(O)c3c(c(C(C)=O)c2O)OC(C)(C)C=C3)C1=O` [DRUMMONDIN C], the MIC was 3.12 µg/mL (≈ 7.05 µM) against Staphylococcus aureus; 0.78 µg/mL (≈ 1.76 µM) in the test on Bacillus subtilis; 6.25 µg/mL (≈ 14.1 µM) in test [1]; greater than 100 µg/mL in the test with Pseudomonas aeruginosa; greater than 100 µg/mL in the test on Escherichia coli. In addition, the EC50 in the test with P388 worked out at 2.8 µg/mL (≈ 6.33 µM); in the test on KB it was 8.6 µg/mL (≈ 19.4 µM); in test [2] it was 5.1 µg/mL (≈ 11.5 µM); in [3] it was 11 µg/mL (≈ 24.9 µM); in test [4], 8.7 µg/mL (≈ 19.7 µM); in test [5], 12 µg/mL (≈ 27.1 µM).
Consider `CC(=O)C1=C(O)C(C)(CC=C(C)C)C(O)=C(Cc2c(O)c(CC=C(C)C)c(O)c(C(C)=O)c2O)C1=O` (stereo not drawn) [DRUMMONDIN F], for which the MIC in the test on Staphylococcus aureus was 0.78 µg/mL (≈ 1.56 µM); with Bacillus subtilis, 0.78 µg/mL (≈ 1.56 µM); in [1], 1.56 µg/mL (≈ 3.13 µM); in the test on Pseudomonas aeruginosa it was greater than 100 µg/mL; in the test with Escherichia coli, greater than 100 µg/mL. The EC50 with P388 was 21 µg/mL (≈ 42.1 µM); with KB it was 18 µg/mL (≈ 36.1 µM); in test [2], 21 µg/mL (≈ 42.1 µM); in [3] it was 42 µg/mL (≈ 84.2 µM); in [4] it was 30 µg/mL (≈ 60.2 µM); in [5], greater than 50 µg/mL.
As for `CN[C@@H]1[C@H](O[C@H]2[C@H](O[C@H]3[C@H](O)[C@@H](O)[C@H](N=C(N)N)[C@@H](O)[C@@H]3N=C(N)N)O[C@@H](C)[C@]2(O)C=O)O[C@@H](CO)[C@H](O)[C@H]1O` [STREPTOMYCIN], the MIC was 6.25 µg/mL (≈ 10.7 µM) against Staphylococcus aureus, 0.78 µg/mL (≈ 1.34 µM) against Bacillus subtilis and 3.12 µg/mL (≈ 5.36 µM) in test [1].

The MIC is the lowest concentration that inhibits growth of the organism.
